# Experimental data from publication PMC6746264, “Novel tyrosinase inhibitory peptide with free radical scavenging ability” (Journal of Enzyme Inhibition and Medicinal Chemistry, 2019).
# “Also recorded” adds a separate entry of the source. No end group written: not given here.
# How the values were obtained:
# mushroom tyrosinase = mushroom tyrosinase (Agaricus bisporus, UniProt C7FF04); assay: Comparison of tyrosinase inhibition rate (maximum reaction rate, IC50); assay type: biochemical
# Protocol: Figure 2. […] (D) The plot of the percentage of enzyme activity (Vss) vs the […] concentration [I]. IC50 of the inhibitors were directly obtained from the plots.
# Before conducting the experiment, all the solutions, 96-well plates, and tips were heated at 37 °C. Equal volumes of tyrosine solutions (final concentration of 2.5 mM) were added to the 96-well plates, mixed with different concentrations of the inhibitors mentioned above and incubated for 10 min at 37 °C. Then, equal volume of the tyrosinase solution (100 U per well) was added to the 96-well plate using a multichannel pipette, which was placed immediately in a microplate reader under shaking conditions for 30 s. Finally, the light absorbance value at 475 nm was recorded at 37 °C continuously for 2 h with intervals of 20 s. The maximum reaction rate of tyrosinase at each concentration of the inhibitor was calculated.
# [1] = system: human melanoma cell line (A375); assay: Intracellular tyrosinase activity inhibition assay (melanin production); assay type: cell-based; conditions: A375 cells, 60 h, N = 3
# Protocol: (§1) A human melanoma cell line (A375) was provided by the Stem Cell Bank, Chinese Academy of Sciences. The A375 cell line was cultured in DMEM media containing 10% fetal bovine serum and 1% penicillin/streptomycin in an incubator at 37 °C and an atmosphere containing 5% CO2[32].
# The A375 cells were seeded at a density of 1 × 10^5 cells/well in a 6-well plate and cultured for 12 h. […] After adding 0.5 ml NaOH (1 M), the cells were disrupted by sonication, and incubated at 50 °C for 10 min.
# tyrosinase = assay: CD spectroscopy; assay type: binding, mushroom; conditions: 200–260 nm, 293.15 K, mixture with tyrosinase, 0.2 mg/ml
# Protocol: The CD measurements were performed at 293.15 K with a bandwidth, step interval and scanning speed of 1.0 nm, 1 nm, and 50 nm min^−1, respectively.
# Figure 4.
# [2] = cited from earlier work
# Excerpt: However, the adverse side effects associated with their use have led to restrictions in their applications.
# A375 cells = assay: MTT assay (cell viability); assay type: cell-based, human; conditions: 24 h, inhibitors 2.5 mM in PBS, absorbance 492 nm
# Protocol: as §1
# The A375 cells were seeded at a density of 1 × 10^4 cells per well in a 96-well plate. They were incubated for 24 h at 37 °C under an atmosphere containing 5% CO2. Then, different tyrosinase inhibitors were added into the culture media. After incubation for 24 h, the cell viability was measured using the MTT assay, which was based on the conversion of MTT to formazan crystals by mitochondrial dehydrogenases. Briefly, the cell cultures were incubated with a 20 µl MTT solution (5 mg/mL) for 4 h at 37 °C. The culture supernatant was carefully removed from the well, and 150 µl DMSO was added followed by shaking for 10 min to dissolve the formazan crystals. Absorbance at 492 nm was measured using a microplate reader (VersaMax Microplate Reader)[35]. Cell viability of the control group in which […] was replaced by PBS was defined as 100%[36].
# A375 melanoma cells = assay: Number of proliferated melanoma cells; assay type: cell-based, human
# Protocol: Fig. S3. The OD values at 475 nm of the solutions shown in Fig. 1A after storage for 12 months. Error
# Fig. S4. Total number of proliferated melanoma cells in the presence of different tyrosinase inhibitors.
# The concentration of each inhibitor is 2.5 mM. Error bars represent S.D. N=3. […]
# [3] = 1 mM, comparison among arbutin, glutathione and EF-5
# Sequence of mushroom tyrosinase (C7FF04 1-392): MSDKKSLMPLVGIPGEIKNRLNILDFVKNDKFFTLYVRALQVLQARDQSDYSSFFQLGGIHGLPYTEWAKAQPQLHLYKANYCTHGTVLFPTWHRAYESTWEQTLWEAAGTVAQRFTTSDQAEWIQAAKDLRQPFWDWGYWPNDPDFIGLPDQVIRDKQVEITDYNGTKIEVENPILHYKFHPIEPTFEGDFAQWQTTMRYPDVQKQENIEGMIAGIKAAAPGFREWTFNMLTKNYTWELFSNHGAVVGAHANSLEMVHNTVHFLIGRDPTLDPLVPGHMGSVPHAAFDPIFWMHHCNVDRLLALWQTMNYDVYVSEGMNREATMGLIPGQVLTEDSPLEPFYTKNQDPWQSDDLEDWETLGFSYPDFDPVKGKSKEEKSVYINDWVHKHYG
molecule,measurement,setting,value
glutathione,lag phase of the catalytic reaction of tyrosinase,"mushroom tyrosinase; 475 nm, 37 °C, compared with arbutin",may significantly increase the lag phase
same,melanin inhibitory effect,[1]; [3],the melanin inhibitory effects of arbutin and glutathione were similar
same,change of CD spectrum of tyrosinase,tyrosinase,does not show such changes
OC[C@H]1O[C@@H](Oc2ccc(O)cc2)[C@H](O)[C@@H](O)[C@@H]1O [arbutin],melanin inhibitory effect,[1]; [3],the melanin inhibitory effects of arbutin and glutathione were similar
same,melanin inhibitory effect,[1]; arbutin 5 mM compared with EF-5 0.5 mM,similar
same,contact dermatitis / exogenous ochronosis,[2],contact dermatitis
same,cell viability / toxicity,A375 cells,the inhibitory effect of arbutin on the viability of melanoma cells is significant
same,total concentration of cells,"A375 melanoma cells; A375, arbutin 5 mM group versus EF-5 0.5 mM group",much lesser than that in the EF-5 (0.5 mM) group
same,inhibition of cell proliferation,"A375 melanoma cells; A375 melanoma cells, 2.5 mM, N=3",inhibit proliferation of the cells
Oc1ccc(O)cc1 [hydroquinone],contact dermatitis / exogenous ochronosis,[2],exogenous ochronosis
O=c1cc(CO)occ1O [kojic acid],carcinogenicity,[2],has demonstrated carcinogenicity
"ECGYF [EF-5, ECGYF]",IC50 relative to IC50 of arbutin,mushroom tyrosinase; EF-5 IC50 as fraction of that of arbutin,about 1/12
same,cell viability / toxicity,A375 cells,nontoxic to cells; also recorded: nontoxic to the melanocytes
